This is an account of results in article PMC3520603 (Journal of biomolecular screening, 2012).

What all share (format): binding
Experiment [1] concerns the target T1, RVFV nucleocapsid N protein (Rift valley fever virus, UniProt P21700). Kind of experiment: biochemical.
Experiment [2] has as its target T1, RVFV nucleocapsid N protein.
The target is the same in experiment [3]. The experiment can be described thus: biochemical. This is another data set of the same source.

Where a name gives a salt, the structure may show the parent alone. Read-outs that look alike come from different tables or passages of the source.

T1 sequence (P21700 whole entry, looked up): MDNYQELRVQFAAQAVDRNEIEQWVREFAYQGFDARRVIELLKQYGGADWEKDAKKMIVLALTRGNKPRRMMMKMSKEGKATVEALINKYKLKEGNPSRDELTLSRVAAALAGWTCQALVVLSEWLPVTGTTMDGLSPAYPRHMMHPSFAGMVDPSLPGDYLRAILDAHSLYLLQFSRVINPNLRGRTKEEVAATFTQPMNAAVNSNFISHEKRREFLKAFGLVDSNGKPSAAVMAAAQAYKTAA

A word on the IC50: it is the concentration that gives 50% inhibition. A low value points to inhibition by little substance. Turning to `Cc1ccc(C(=O)Nc2ccc(S(=O)(=O)O)c3cc(S(=O)(=O)O)cc(S(=O)(=O)O)c23)cc1NC(=O)c1cccc(NC(=O)Nc2cccc(C(=O)Nc3cc(C(=O)Nc4ccc(S(=O)(=O)O)c5cc(S(=O)(=O)O)cc(S(=O)(=O)O)c45)ccc3C)c2)c1` [suramin sodium salt], in experiment [1], the “Avg. Hill slope” value is on record as −2.76 and the IC50 was determined as 16.3 ± 7.3 µM. Further, the “Percent Inhibition HTS” value in experiment [2] is 93.3%.

Take `CC[C@@]1(O)C(=O)OCc2c1cc1n(c2=O)Cc2cc3c(CN(C)C)c(O)ccc3nc2-1` [topotecan]: the “Percent Inhibition HTS” value in experiment [2] came out at 85.9%.

In the case of `CCN(CC)CCCC(C)Nc1c2ccc(Cl)cc2nc2ccc(OC)cc12` (stereo not shown) [quinacrine dihydrochloride], the “Percent Inhibition HTS” value in experiment [2] is reported as 65.7%. For the same compound, in experiment [3], the “Avg. Hill slope” value is −2.99 and the IC50 turned out to be 162 ± 26 µM.

Take `Br.CN=c1nc(-c2ccccc2)n(-c2ccccc2)s1` [S 4063]: in experiment [1], the “Avg. Hill slope” value is reported as −1.64 and the IC50 is 6.7 ± 2.9 µM. Moreover, the “Percent Inhibition HTS” value in experiment [2] is 50.3%.
